Laboratory results from patent US7452869B2, “NIP3 family of proteins” (University of Manitoba, priority 2000, dated 2008).
Entries after “also recorded” stand apart in the source; their conditions may differ.

What was measured:
BNIP3 [1] = test: intrastriatal injection in rats, BNIP3 immunohistochemistry and in situ hybridization; format: in vivo; conditions: rat
Procedure: Male Sprague-Dawley rats, with body weights ranging between 200 to 250 g, were obtained from the University of Manitoba Central Animal Care breeding facility. All procedures followed Canadian Council on Animal Care guidelines and were approved by the Animal Care Committee at the University of Manitoba. Animals were anesthetized with 74 mg/kg sodium pentobarbital (i.p.) and placed in a stereotaxic surgery frame. Unilateral intrastriatal injections were performed using the following coordinates (in mm); AP […], ML 3.0 and DV 4.5 (Paxinos, G. et al. (1986)). Drugs were administered over a 5 minute period in a volume of 1 μl using a 10 μl syringe fitted with a 30-gauge needle. Following injection, the needle was left in place for 5 minutes before being slowly withdrawn to allow diffusion of the drug away from the injection site. Kainic acid, dissolved in 50 mM Tris-HCl with the pH adjusted to 7.4 with NaOH, was administered at a dose of 2.5 nmol. Control rats received unilateral injections of 1 μl 50 mM Tris-HCl, pH 7.4. […]
For immunohistochemistry and in situ hybridization, rats were perfused transcardially with 0.9% saline and then 4% paraformaldehyde. […] Brain sections were hybridized with the probe, incubated with an alkaline phosphatase-conjugated anti-digoxigenin antibody, and labeled cells were detected with BCIP/NBT.

PT pore = test: mitochondrial Dcm (DiOC6), ROS production (HE) and PI staining by flow cytometry in BNIP3-transfected 293T cells; format: cell-based
Procedure: Changes in mitochondrial function were determined by incubating 10 6 293T cells, transiently transfected via the CaP04 method, with either 1 mM JC-1, 40 nM DiOC6, or 2 mM dihydroethidium (HE) (all from Molecular Probes, Inc.) for 30 minutes at 37° C. in Hanks' balanced salt solution (Gibco-BRL). Cells were scored using a FACScalibur flow cytometer (Becton-Dickinson, San Jose, Calif.), and data were analyzed on Celiquest software, version 3.1 (Becton-Dickinson). Controls were performed in the presence or absence of […] mClCCP (Sigma) or an excess of 30% H2 02. For inhibition experiments, cyclosporin A (Sigma) or bongkrekic acid (a gift from J. A. Duine, Delft University, Delft, The Netherlands) was added 2 hours prior to transfection. All cells were harvested 8 hours after transfection and stained with 40 nM DiOC6, 2 mM HE, or 1 mg of propidium iodide (PI) (Sigma) per ml. In all cases, samples were gated to exclude cellular debris.

[2] = tested on: mitochondrial permeability transition pore; test: mitochondrial permeability transition in ventricular myocytes, calcein-AM with cobalt chloride; format: cell-based, rat; conditions: Bongkrekic acid 50 μmol/L
From the text: To monitor mitochondrial permeability transition (PT), ventricular myocytes were loaded with 5 μmol/L calcein-acetoxymethylester (calcein-AM, Molecular Probes) in the presence of 2 to 5 mmol/L cobalt chloride as previously reported (Gurevich et al., 2001; Petronilli et al., 1998).

ventricular myocytes = test: cell viability of ventricular myocytes, calcein acetoxymethyl ester / ethidium homodimer-1; format: cell-based; conditions: Bongkrekic acid 50 μmol/L
Procedure: Ventricular myocytes were isolated from 1- to 2-day-old Sprague-Dawley rats (University of Manitoba, Winnipeg, Canada) and submitted to primary culture as reported (Kirshenbaum and Schneider, 1995). Myocytes were subjected to hypoxia for 24 hours in an air-tight chamber continually gassed with 95% N2-5% CO2, as previously reported (Moissac et al., 2000; Long et al., 1997; Tanaka et al., 1994). Adult rat hearts (n=3) were excised from adult rats (250 to 300 g) and subjected to global hypoxia for 1 hour on a modified Langendorff perfusion system with buffer continually gassed with 95% N2-5% CO2, as previously reported (Kirshenbaum, 1993). Heart failure was induced in rats by surgical ligation of the left anterior descending coronary artery, as previously reported (Dixon et al., 1992). Non-failing sham control hearts and those with heart failure were excised from animals 8 weeks after myocardial infarction. Hearts (n=3) were dissected to remove the infarcted scar tissue, and the left ventricular free wall was homogenized and analyzed by Western blot for BNIP3 expression. Animals were handled according to guidelines established by the University of Manitoba and Canadian Council on Animal Care.
The cDNAs for BNIP3 full-length (BNIP3) and carboxyl terminal transmembrane domain deletion mutant (BNIP3ΔTM) have been described previously (Vande et al., 2000). Recombinant adenoviruses encoding the full-length BNIP3 or transmembrane deletion mutant are designated AdBNIP3 or AdBNIP3ΔTM, respectively, and generated as reported previously (Kirshenbaum et al., 1993).
Cell viability was determined using the vital dyes 2 μmol/L calcein acetoxymethyl ester (green) to determine the number of living cells and 2 μmol/L ethidium homodimer-1 (red) (Molecular Probes) to identify the number of dead cells (Kirshenbaum and Schneider, 1995). The number of green cells versus red cells was used to determine changes in cell viability (Moissac et al., 2000). Cells were analyzed from at least n=3 independent myocyte isolations counting ≧200 cells for each condition tested. Data are expressed as mean±SE percent reduction from control.

[3] = tested on: primary hippocampal neurons; test: excitotoxic cell death of primary hippocampal neurons, trypan blue exclusion; format: cell-based, rat
Procedure: (§1) Primary hippocampal neurons were prepared from 18-day-old embryonic Sprague-Dawley rats as described previously by Haughey, N. J. et al. (2001). Briefly, hippocampal tissue was dissociated by gentle tituration in a calcium-free Hank's balanced salt solution and was centrifuged at 1000×g. Cells were resuspended in Dulbecco's modified Eagle's medium (DMEM)/F12 nutrient mixture containing 10% heat-inactivated fetal bovine serum and 1% antibiotic solution (104 IU of penicillin G/ml, 10 mg streptomycin/ml and 25 μg amphotericin B/ml) in 0.9% NaCl (Sigma, St Louis, Mo., USA). Hippocampal neurons were plated at a density of 2×10^5 cells/ml on 12-mm diameter poly d-lysine-coated glass coverslips. Three hours after plating, the media was replaced with serum-free Neurobasal media containing 1% B-27 supplement (Gibco, Rockville, Md., USA).
To determine the extent to which NMDA-type glutamate receptors were involved in BNIP3 expression and excitotoxic cell death, the inventors used the agonist NMDA (100 μM) in the absence or presence of the NMDA receptor antagonist MK-801 (10 μM). To determine the extent to which caspase activation contributes to BNIP3-mediated cell death, hippocampal cells were incubated in the absence or presence of the broad spectrum cell permeable caspase inhibitors z-VAD-FMK (50 μM) and BOC-D-FMK (50 μM); these inhibitors were applied 30 minutes prior to application of glutamate or NMDA. […]
In vitro cell death was estimated using trypan blue exclusion. Cells were incubated in 0.4% trypan blue solution for 30 minutes and then counted on a bright-field microscope. Nonviable cells were distinguished by their dark blue staining. To examine nuclear morphology, nuclear DNA was stained with Hoescht 33342. DNA fragmentation was detected by TUNEL using an in situ cell death detection kit with fluorescein. Statistical analyses were by ANOVA with Tukey's post-test.

BNIP3 [4] = test: BNIP3 immunohistochemistry in primary hippocampal neurons after glutamate; format: cell-based, rat; conditions: 100 μM glutamate
Procedure: as §1
For immunohistochemistry and in situ hybridization, rats were perfused transcardially with 0.9% saline and then 4% paraformaldehyde. Brains were carefully removed and post-fixed overnight in PBS containing 4% paraformaldehyde. After rinsing in PBS, the brains were placed in PBS containing 0.5 M sucrose (pH 7.3) at 4° C. until buoyancy was lost. […] Brain sections were hybridized with the probe, incubated with an alkaline phosphatase-conjugated anti-digoxigenin antibody, and labeled cells were detected with BCIP/NBT.

BNIP3 [5] = test: western blot of BNIP3 in neonatal cardiac myocytes treated with lactacystin (FIG. 12); format: cell-based; conditions: hypoxic or normoxic 24 hours
Procedure: Neonatal cardiac myocytes were incubated in hypoxic (+) or normoxic (−) conditions for 24 hours. Cells were treated with lactacystin at the indicated concentrations and lysates harvested for western blotting with anti-BNIP3 antibody. BNIP3 band is indicated with an arrow.

[6] = drug 2 hours prior to transfection, harvested 8 hours posttransfection, 25 and 50 mM cyclosporin A, 100 mM bongkrekic acid

C=C(C)[C@H]1CN[C@H](C(=O)O)[C@H]1CC(=O)O [kainic acid]
BNIP3 expression in striatum (immunohistochemistry) (BNIP3 [1]; intrastriatal 1 μl, 2.5 nmol kainic acid, 5 nmol CNQX alone or mixed with kainic acid, 48 hours): observed only in those rats that received kainic acid alone | levels of BNIP3 mRNA (in situ hybridization) (BNIP3 [1]; intrastriatal kainic acid): increased

CO[C@H](C/C=C\C=C\CC/C=C/C[C@H](C)/C=C/C(=C\C(=O)O)CC(=O)O)/C(C)=C\C=C(/C)C(=O)O [bongkrekic acid]
maximum suppression of BNIP3 effects, of that in control cells (PT pore; Dcm suppression, ROS generation and cell death): about 50% | cell death (PI staining) in BNIP3 transfectants (PT pore; drug 2 hours prior to transfection, harvested 8 hours posttransfection, 50 mM cyclosporin A, 100 mM bongkrekic acid): dose-dependent reversal; also recorded: significantly suppressed | Dcm suppression (DiOC6) in BNIP3 transfectants (PT pore; [6]): dose-dependent reversal; also recorded: significantly inhibited | ROS generation (HE fluorescence) in BNIP3 transfectants (PT pore; [6]): dose-dependent reversal; also recorded: inhibited | BNIP3-induced loss of mitochondrial calcein staining [2]: suppressed | BNIP3-induced mitochondrial defects and cell death (ventricular myocytes): prevented

N[C@@H](CCC(=O)O)C(=O)O [glutamate]
hippocampal neurons killed ([3]; 10 μM glutamate for 6 hours, then Neurobasal media 24 hours): 40% | cells stained positively for trypan blue ([3]; 100 μM glutamate for 6 hours, then Neurobasal media 24 hours): 70% | neuronal cell death (trypan blue exclusion) ([3]; 6 hours after application, p<0.01): significantly increased | cells stained positive for BNIP3 (BNIP3 [4]): more than 50%

CC(=O)N[C@@H](CSC(=O)[C@]1([C@@H](O)C(C)C)NC(=O)[C@H](C)[C@@H]1O)C(=O)O [Lactacystin]
degradation of the BNIP3 protein (western blot) (BNIP3 [5]): slows the degradation
